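Grown in 96-well plates, cells were treated for 48 hours with each compound at five concentrations. Insufficient inhibition: endpoint recorded as highest concentration tested. Abbreviation: GI50, concentration required for 50% inhibition of growth. TGI is the concentration that stops growth completely.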
Legend:
Test in all cases: NCI-60 cell line screen, 48 h
786-0 renal = system: 786-0 renal
A498 renal = system: A498 renal
A549 NSCLC = system: A549 NSCLC
ACHN renal = system: ACHN renal
BT-549 breast = system: BT-549 breast
CAKI-1 renal = system: CAKI-1 renal
CCRF-CEM leukemia = system: CCRF-CEM leukemia
COLO 205 colon = system: COLO 205 colon
DU-145 prostate = system: DU-145 prostate
EKVX NSCLC = system: EKVX NSCLC
HCC-2998 colon = system: HCC-2998 colon
HCT-116 colon = system: HCT-116 colon
HCT-15 colon = system: HCT-15 colon
HL-60(TB) leukemia = system: HL-60(TB) leukemia
HOP-62 NSCLC = system: HOP-62 NSCLC
HOP-92 NSCLC = system: HOP-92 NSCLC
HS 578T breast = system: HS 578T breast
HT29 colon = system: HT29 colon
IGROV1 ovarian = system: IGROV1 ovarian
K-562 leukemia = system: K-562 leukemia
KM12 colon = system: KM12 colon
LOX IMVI melanoma = system: LOX IMVI melanoma
M14 melanoma = system: M14 melanoma
MALME-3M melanoma = system: MALME-3M melanoma
MDA-MB-231 breast = system: MDA-MB-231 breast
MDA-MB-435 = system: MDA-MB-435
MOLT-4 leukemia = system: MOLT-4 leukemia
NCI-H226 lung = system: NCI-H226 lung
NCI-H23 lung = system: NCI-H23 lung
NCI-H460 lung = system: NCI-H460 lung
NCI-H522 lung = system: NCI-H522 lung
NCI/ADR-RES ovarian = system: NCI/ADR-RES ovarian
OVCAR-3 ovarian = system: OVCAR-3 ovarian
OVCAR-4 ovarian = system: OVCAR-4 ovarian
OVCAR-5 ovarian = system: OVCAR-5 ovarian
OVCAR-8 ovarian = system: OVCAR-8 ovarian
PC-3 prostate = system: PC-3 prostate
RPMI-8226 leukemia = system: RPMI-8226 leukemia
RXF 393 renal = system: RXF 393 renal
SF-268 CNS = system: SF-268 CNS
SF-295 CNS = system: SF-295 CNS
SF-539 CNS = system: SF-539 CNS
SK-MEL-2 melanoma = system: SK-MEL-2 melanoma
SK-MEL-28 melanoma = system: SK-MEL-28 melanoma
SK-MEL-5 melanoma = system: SK-MEL-5 melanoma
SK-OV-3 ovarian = system: SK-OV-3 ovarian
SN12C renal = system: SN12C renal
SNB-19 CNS = system: SNB-19 CNS
SNB-75 CNS = system: SNB-75 CNS
SR leukemia = system: SR leukemia
SW-620 colon = system: SW-620 colon
T-47D breast = system: T-47D breast
TK-10 renal = system: TK-10 renal
U251 CNS = system: U251 CNS
UACC-257 melanoma = system: UACC-257 melanoma
UACC-62 melanoma = system: UACC-62 melanoma
UO-31 renal = system: UO-31 renal

For `C=C1C(=O)O[C@H]2[C@H]1CC/C(COC(=O)NCc1[nH]nc3ccccc13)=C\CC[C@@]1(C)O[C@@H]21`, the GI50 (786-0 renal) was 1.72 µM, the TGI (786-0 renal) was 3.63 µM and the GI50 (A498 renal) was 12.6 µM. For the same compound, the TGI (A498 renal) was 26.3 µM, the GI50 (A549 NSCLC) was 8.61 µM and the TGI (A549 NSCLC) was 25.7 µM. The GI50 (ACHN renal) was 1.11 µM, the TGI (ACHN renal) was 2.63 µM and the GI50 (BT-549 breast) was 2.86 µM. The TGI (BT-549 breast) was 8.93 µM, the GI50 (CAKI-1 renal) was 1.37 µM and the TGI (CAKI-1 renal) was 3.91 µM. For the same compound, the GI50 (CCRF-CEM leukemia) was 0.337 µM, the TGI (CCRF-CEM leukemia) was 2.51 µM and the GI50 (COLO 205 colon) was 1.27 µM. The TGI (COLO 205 colon) was 2.93 µM, the GI50 (DU-145 prostate) was 1.24 µM and the TGI (DU-145 prostate) was 3.03 µM. For the same compound, the GI50 (EKVX NSCLC) was 3.1 µM, the TGI (EKVX NSCLC) was 13.4 µM and the GI50 (HCC-2998 colon) was 2.78 µM. It also gave a TGI (HCC-2998 colon) of 8.97 µM, a GI50 (HCT-116 colon) of 0.839 µM and a TGI (HCT-116 colon) of 2.53 µM. It also gave a GI50 (HCT-15 colon) of 1.07 µM, a TGI (HCT-15 colon) of 2.64 µM and a GI50 (HL-60(TB) leukemia) of 0.458 µM. The TGI (HL-60(TB) leukemia) was 2.73 µM, the GI50 (HOP-62 NSCLC) was 9.72 µM and the TGI (HOP-62 NSCLC) was 23.4 µM. The GI50 (HOP-92 NSCLC) was 2.03 µM, the TGI (HOP-92 NSCLC) was 4.11 µM and the GI50 (HS 578T breast) was 4.35 µM. For the same compound, the TGI (HS 578T breast) was 27.1 µM, the GI50 (HT29 colon) was 1.18 µM and the TGI (HT29 colon) was 2.69 µM. For the same compound, the GI50 (IGROV1 ovarian) was 2.24 µM, the TGI (IGROV1 ovarian) was 9.26 µM and the GI50 (K-562 leukemia) was 0.473 µM. For the same compound, the TGI (K-562 leukemia) was 17.5 µM, the GI50 (KM12 colon) was 4.25 µM and the TGI (KM12 colon) was 18.1 µM. The GI50 (LOX IMVI melanoma) was 1.05 µM, the TGI (LOX IMVI melanoma) was 2.43 µM and the GI50 (M14 melanoma) was 2.03 µM. For the same compound, the TGI (M14 melanoma) was 5.49 µM, the GI50 (MALME-3M melanoma) was 2.06 µM and the TGI (MALME-3M melanoma) was 4.24 µM. For the same compound, the GI50 (MDA-MB-231 breast) was 1.64 µM, the TGI (MDA-MB-231 breast) was 3.34 µM and the GI50 (MDA-MB-435) was 1.64 µM. The TGI (MDA-MB-435) was 4.42 µM, the GI50 (MOLT-4 leukemia) was 1.71 µM and the TGI (MOLT-4 leukemia) was 5.97 µM. It also gave a GI50 (NCI-H226 lung) of 16.3 µM, a TGI (NCI-H226 lung) of 33.7 µM and a GI50 (NCI-H23 lung) of 2.19 µM. For the same compound, the TGI (NCI-H23 lung) was 7.24 µM, the GI50 (NCI-H460 lung) was 3.9 µM and the TGI (NCI-H460 lung) was 15.5 µM. For the same compound, the GI50 (NCI-H522 lung) was 1.21 µM, the TGI (NCI-H522 lung) was 2.65 µM and the GI50 (NCI/ADR-RES ovarian) was 6.22 µM. The TGI (NCI/ADR-RES ovarian) was 22.5 µM, the GI50 (OVCAR-3 ovarian) was 1.06 µM and the TGI (OVCAR-3 ovarian) was 2.38 µM. For the same compound, the GI50 (OVCAR-4 ovarian) was 4.06 µM, the TGI (OVCAR-4 ovarian) was 17.5 µM and the GI50 (OVCAR-5 ovarian) was 2.59 µM. For the same compound, the TGI (OVCAR-5 ovarian) was 6.14 µM, the GI50 (OVCAR-8 ovarian) was 2.67 µM and the TGI (OVCAR-8 ovarian) was 12.3 µM. It also gave a GI50 (PC-3 prostate) of 1.67 µM, a TGI (PC-3 prostate) of 5.79 µM and a GI50 (RPMI-8226 leukemia) of 0.437 µM. The TGI (RPMI-8226 leukemia) was 2.98 µM, the GI50 (RXF 393 renal) was 0.719 µM and the TGI (RXF 393 renal) was 2.23 µM. For the same compound, the GI50 (SF-268 CNS) was 5.52 µM, the TGI (SF-268 CNS) was 20 µM and the GI50 (SF-295 CNS) was 7.24 µM. For the same compound, the TGI (SF-295 CNS) was 21.8 µM, the GI50 (SF-539 CNS) was 1.82 µM and the TGI (SF-539 CNS) was 4.72 µM. It also gave a GI50 (SK-MEL-2 melanoma) of 4.11 µM, a TGI (SK-MEL-2 melanoma) of 15.5 µM and a GI50 (SK-MEL-28 melanoma) of 1.69 µM. It also gave a TGI (SK-MEL-28 melanoma) of 3.7 µM, a GI50 (SK-MEL-5 melanoma) of 2.73 µM and a TGI (SK-MEL-5 melanoma) of 10.5 µM. For the same compound, the GI50 (SK-OV-3 ovarian) was 11.8 µM, the TGI (SK-OV-3 ovarian) was 24.4 µM and the GI50 (SN12C renal) was 1.68 µM. The TGI (SN12C renal) was 4.64 µM, the GI50 (SNB-19 CNS) was 5.31 µM and the TGI (SNB-19 CNS) was 19.6 µM. The GI50 (SNB-75 CNS) was 5.06 µM, the TGI (SNB-75 CNS) was 21.1 µM and the GI50 (SR leukemia) was 0.27 µM. The TGI (SR leukemia) was 2.89 µM, the GI50 (SW-620 colon) was 0.596 µM and the TGI (SW-620 colon) was 2.28 µM. The GI50 (T-47D breast) was 1.74 µM, the TGI (T-47D breast) was 5.43 µM and the GI50 (TK-10 renal) was 1.82 µM. For the same compound, the TGI (TK-10 renal) was 3.49 µM, the GI50 (U251 CNS) was 3.16 µM and the TGI (U251 CNS) was 13.7 µM. The GI50 (UACC-257 melanoma) was 2.13 µM, the TGI (UACC-257 melanoma) was 5.01 µM and the GI50 (UACC-62 melanoma) was 1.56 µM. The TGI (UACC-62 melanoma) was 3.67 µM, the GI50 (UO-31 renal) was 1.51 µM and the TGI (UO-31 renal) was 2.95 µM.

Reference: PubChem BioAssay (NCI)
